Our source for the melting point values is a melting point compilation (Tetko et al.).

SMILES strings stand for the structures.

One may read the melting point as the temperature, or range, at which the solid turns liquid.

Consider `COc1cc(C2c3cc4c(cc3C(NC(=O)CNCCCCN(CCCNC(=O)OCc3ccccc3)C(=O)OCc3ccccc3)C3COC(=O)C23)OCO4)cc(OC)c1O` (stereo not given), for which the melting point turned out to be 199 °C.
In the case of `COc1ccc(C(=CC2(C=C(c3ccc(OC)cc3)c3ccc(N4CCCC4)cc3)OC(=O)c3c(Cl)c(Cl)c(Cl)c(Cl)c32)c2ccc(N3CCCC3)cc2)cc1` (stereo not given), the melting point lay in the range of 159 to 161 °C.
Then `Cc1cc(C)c2cccc(OCc3c(Cl)ccc(S(=O)(=O)N4CCC[C@H]4C(=O)NC4CCN(C(=O)CCN(C=NC(=O)OC(C)(C)C)NC(=O)OC(C)(C)C)CC4)c3Cl)c2n1`, with 115 to 117 °C; and `CCCc1nc(OC)c(NC(=O)N2CCN(c3cc(OC)cc(OC)c3)CC2)cc1C(=O)NC(C)C(=O)Nc1cc(CO)cc(Nc2c3ccccc3nc3ccccc23)c1` (stereo not given), with 220 to 222 °C.
Then `Cc1cc(Cn2nnn(-c3cc(C(F)(F)F)cc(C(F)(F)F)c3)c2=O)ccc1N(C(=O)c1c(I)cccc1C(N)=O)C(C)(C)CS(C)=O` (stereo not given), with 165 to 171 °C; and `O=C(Cc1cc(I)c(Oc2cc(I)c(OCC3CO3)c(I)c2)c(I)c1)NC1CCCCC1` (stereo not given), with 242 °C.
Then `CCCCN(c1nc(N(CCCC)C2CC(C)(C)N(OCC(C)(C)O)C(C)(C)C2)nc(N(CCCC)C2CC(C)(C)N(OCC(C)(C)O)C(C)(C)C2)n1)C1CC(C)(C)N(OCC(C)(C)O)C(C)(C)C1`, with 172 to 176 °C; and `COc1cc(OC)c(/C=C/C(c2ccc(OC)c(NC(=O)C(C)(C)O)c2)S(=O)(=O)C(/C=C/c2c(OC)cc(OC)cc2OC)c2ccc(OC)c(NC(=O)C(C)(C)O)c2)c(OC)c1` (stereo not given), with 198 to 199 °C; and `COC(=O)COC1C(NC(C)=O)C(OCc2ccccc2)OC(COCc2ccccc2)C1OC1OC(COCc2ccccc2)C(OCc2ccccc2)C(OCc2ccccc2)C1NC(C)=O` (stereo not given), with 221 to 223 °C.
Regarding `C=CC(=O)OCCCCCCCCCCCOc1ccc(-c2nc(-c3ccc(OCCCCCCCCCCCOC(=O)C=C)cc3O)nc(-c3ccc(OCCCCCCCCCCCOC(=O)C=C)cc3O)n2)c(O)c1`, the melting point was 72.8 °C.
Then `C=CCOCC(=O)Nc1c(I)c(C(=O)NC(COC(C)=O)COC(C)=O)c(I)c(C(=O)NC(COC(C)=O)COC(C)=O)c1I`, with 214 to 216 °C; and `Cn1cncc1C(O)(c1ccoc1)c1ccc2c(c1)c(-c1cccc(Cl)c1)cc1nnnn12` (stereo not given), with 188 °C; and `CN1CCC(c2nn(-c3ccncc3)c3ccccc23)CC1`, with 205 to 207 °C.
The result for `CC(C)c1cc(C(C)C)c(CC(=O)NS(=O)(=O)Oc2c(C(C)C)cc(C(=O)[C@H](CCCCNC(=O)OC(C)(C)C)NC(=O)OC(C)(C)C)cc2C(C)C)c(C(C)C)c1` reads 167 to 171 °C; that for `COc1cc([N+](=O)[O-])cc(C(=O)C2CCCN(C(=O)c3cc([N+](=O)[O-])cc(OC)c3OC)NNN(C(=O)c3cc([N+](=O)[O-])cc(OC)c3OC)CCCC(C(=O)c3cc([N+](=O)[O-])cc(OC)c3OC)CC2)c1OC` (stereo not given), 232 to 235 °C.
Then `COc1cc(OC)c(/C=C/C(c2ccc(OC)c(NC(C)C(=O)O)c2)S(=O)(=O)C(/C=C/c2c(OC)cc(OC)cc2OC)c2ccc(OC)c(NC(C)C(=O)O)c2)c(OC)c1` (stereo not given), with 176 to 180 °C; and `CCCCCCCCCCCCCC=CC(OC(=O)c1ccccc1)C(COC1OC(COCCC(C(=O)OC(C)(C)C)C(=O)OC(C)(C)C)C(O)C(O)C1O)NC(=O)CCCCCCCCCCCCCCC` (stereo not given), with 47.5 to 48.5 °C; and `Nc1nc2sc(Cc3ccccc3)cc2c(=O)[nH]1`, with 294 to 296 °C.
`Cc1ccc2cccc(OCc3c(Cl)ccc(S(=O)(=O)N4CCC[C@H]4C(=O)NC4CCN(C(=O)CN(C=NC(=O)OC(C)(C)C)NC(=O)OC(C)(C)C)CC4)c3Cl)c2n1` had a melting point of 123 °C.
For `Cc1cccc(-c2cc3ccccc3c(Cl)n2)n1`, the melting point is 142 to 144 °C.
The result for `C=CC(CC(O)C(CC1CCCCC1)NC(=O)C(Cc1c[nH]cn1)NC(=O)C(Cc1ccccc1)NC(=O)CN(CCNC(=O)OC(C)(C)C)C(=O)OC(C)(C)C)C(C)C` (stereo not given) reads 109 °C.
For the molecule `NC(=O)c1c(I)c(C(=O)N(CC(O)CO)CC(O)CO)c(I)c(N(CC(O)CO)C(=O)CO)c1I` (stereo not given), the melting point lay in the range of 195 to 200 °C.
With `CCCCCc1nc(C)c(C(=O)OCC)n1Cc1ccc2oc(-c3ccccc3-c3nnn(C(c4ccccc4)(c4ccccc4)c4ccccc4)n3)c(Br)c2c1`, the melting point was 89 to 90 °C.
The result for `CS(=O)(=O)c1ccc(-c2nc(C(F)(F)F)nc(N3CCN(C(=O)c4cccs4)CC3)c2-c2ccccc2)cc1` reads 189 to 194 °C.
`C=CCOC1C(NC(C)=O)C(OCc2ccccc2)OC(COCc2ccccc2)C1OC1(N)OC(COCc2ccccc2)C(OCc2ccccc2)C(OCc2ccccc2)C1C(=O)OCC(Cl)(Cl)Cl` (stereo not given): the melting point was 186 to 188 °C.
As for `O=C(O)c1ccccc1Oc1ccc(C(F)(F)F)cc1N(S(=O)(=O)c1cc(C(F)(F)F)cc(C(F)(F)F)c1)S(=O)(=O)c1cc(C(F)(F)F)cc(C(F)(F)F)c1`, the melting point was in the range of 204 to 205 °C.
Then `CCCCCCCCCCCCCCCCCCCCCCCC[C@@H](C(=O)O)[C@H](O)CCCCCCCCCCCCCCC[C@@H]1C[C@@H]1CCCCCCCCCCCCCCCCCCC(=O)[C@@H](C)CCCCCCCCCCCCCCCCCC`, with 66 to 68 °C; and `CC1(C)CC(C(O)CNc2nc(NCCCCCCNc3nc(NCC(O)C4CC(C)(C)NC(C)(C)C4)nc(NCC(O)C4CC(C)(C)NC(C)(C)C4)n3)nc(NCC(O)C3CC(C)(C)NC(C)(C)C3)n2)CC(C)(C)N1` (stereo not given), with 165 to 168 °C; and `CCCCCCCCCCCCCCCCCCOc1cc(OCCCCCc2cccc(OCc3ccccc3)c2OCc2ccccc2)cc(N(CC(=O)O)CC(=O)O)c1`, with 79 to 81 °C.
The result for `COc1cc(OC)c(/C=C/C(c2ccc(OC)c(OC)c2OC)S(=O)(=O)C(/C=C/c2c(OC)cc(OC)cc2OC)c2ccc(OC)c(OC)c2OC)c(OC)c1` (stereo not given) reads 94 to 96 °C; that for `CCCCCCCCCCC1(CCCCCCCCCC)c2cc(-c3ccc4c(c3)C(CC)(CC)c3cc(-c5nc6ccccc6s5)ccc3-4)ccc2-c2ccc(-c3ccc4c(c3)C(CC)(CC)c3cc(N(c5ccccc5)c5ccccc5)ccc3-4)cc21`, 228 to 229 °C; that for `CCC(CO)Sc1nc(Nc2ccc(S(C)(=N)=O)cc2)ncc1Br` (mixture of isomers), 175 to 180 °C.
Then `CN1C(C)(C)CC2(CC1(C)C)NC(=O)N(CC(O)COC(=O)CCCCCCCCCCC(=O)OCC(O)CN1C(=O)NC3(CC(C)(C)N(C)C(C)(C)C3)C1=O)C2=O` (stereo not given), with 53 to 57 °C.
`CC(C)[C@H](NC(=O)N(C)Cc1csc(N)n1)C(=O)N[C@@H](Cc1ccccc1)C[C@H](O)[C@H](Cc1ccccc1)NC(=O)[C@@H](NC(=O)N(C)Cc1csc(N)n1)C(C)C` had a melting point of 110 to 114 °C.
`COc1cc(OC)c(/C=C/C(c2ccc(OC)c(NC(=O)c3ccccc3)c2)S(=O)(=O)C(/C=C/c2c(OC)cc(OC)cc2OC)c2ccc(OC)c(NC(=O)c3ccccc3)c2)c(OC)c1` (stereo not given) gave a melting point of 163 to 166 °C.
Then `Cc1cc(Oc2ccc3nc(COc4ccc(CC(Nc5ccccc5C(=O)c5ccccc5)C(=O)O)cc4)n(C)c3c2)cc(C)c1NC(=O)Nc1ccc(C(F)(F)F)cc1` (stereo not given), with 165 to 172 °C.
Then `COC(=O)c1ccccc1CN1C(=O)C2(COc3cc4c(cc32)OCO4)c2ccccc21` (stereo not given), with 166 to 167 °C; and `C=CC1=C(C)c2cc3[nH]c(cc4nc(cc5[nH]c(cc1n2)c(C)c5CCC(=O)OCCCCCCN(C)C)C(CCC(=O)OCCCCCCN(C)C)=C4C)c(C)c3C=C`, with 160 to 165 °C; and `CCCCCCCCNC1(NC(=O)c2ccccc2-c2ccc(CCCCCCCC)cc2)CC(CCCC)=C(NC(=O)c2ccccc2-c2ccc(CCCCCCCC)cc2)C2=C1C(=O)c1ccccc1C2=O` (stereo not given), with 94 to 95 °C.
Then `CCCCCCOCC1CN(c2cc3c(cc2F)c(=O)c(C(=O)O)cn3CC)CCN1` (stereo not given), with 121 to 124 °C.
The molecule `CCCCCCCCCCCCCCCCCCN(CCCCCCCCCCCCCCCCCC)C(=O)c1c(NS(=O)(=O)c2cccc(C(C)=O)c2)cc2ccccc2c1OC(=O)c1ccccc1` had a melting point of 91 to 93 °C.
Then `O=C(NCCCN1CCOCC1)c1ccc(-c2ccc(Br)cc2)o1`, with 83 to 100 °C; and `CC1(C)CC(N(c2nc(N(C3CC(C)(C)NC(C)(C)C3)C3CC(C)(C)NC(C)(C)C3)nc(N(C3CC(C)(C)NC(C)(C)C3)C3CC(C)(C)NC(C)(C)C3)n2)C2CC(C)(C)NC(C)(C)C2)CC(C)(C)N1`, with 325 to 330 °C.
Then `COc1ccc(C(c2ccccc2)C(C)(C(=O)C(C)(C(c2ccccc2)c2ccc(OC)c(OC)c2)N2C(=O)c3ccccc3C2=O)N2C(=O)c3ccccc3C2=O)cc1OC` (stereo not given), with 159 to 161 °C; and `Cc1ccccc1CNC(=O)[C@H]1N(C(=O)[C@@H](O)[C@H](Cc2ccccc2)NC(=O)C(C)C(C)C(=O)OC[C@H]2O[C@@H](n3cc(C)c(=O)[nH]c3=O)CC2N=[N+]=[N-])CSC1(C)C` (stereo not given in full), with 116 to 118 °C; and `CCCCCCCCCCCCc1ccc(N=Nc2ccc(C(N)CCNC(=O)CCN(CCC(=O)NCCN(C)c3ccc(N=Nc4ccc(CCCCCCCCCCCC)cc4[N+](=O)[O-])cc3)c3ccc(N=Nc4ccc(CCCCCCCCCCCC)cc4[N+](=O)[O-])cc3)cc2)c([N+](=O)[O-])c1` (stereo not given), with 127 to 129 °C.
Then `COc1cc2c(cc1I)C(=O)CC2`, with 129 to 130 °C; and `CCCCOC(=O)Nc1nc(CN(C)C(=O)N[C@H](C(=O)N[C@@H](Cc2ccccc2)C[C@H](O)[C@H](Cc2ccccc2)NC(=O)[C@@H](NC(=O)N(C)Cc2csc(NC(=O)OCCCC)n2)C(C)C)C(C)C)cs1`, with 115 to 120 °C; and `CC(C)CCCC(C)C1CCC2C3CC=C4CC(N(CCCNC(=O)CCNC(=O)CNC(=O)OCC5c6ccccc6-c6ccccc65)C(=O)OC(C)(C)C)CCC4(C)C3CCC12C` (stereo not given), with 112 to 114 °C.
As to `CC(C)(C)c1cc(CCC(=O)OCC(COCC(COC(=O)CCc2cc(C(C)(C)C)c(O)c(C(C)(C)C)c2)OC(=O)CCc2cc(C(C)(C)C)c(O)c(C(C)(C)C)c2)OC(=O)CCc2cc(C(C)(C)C)c(O)c(C(C)(C)C)c2)cc(C(C)(C)C)c1O` (stereo not given), the melting point came to 57 °C.
